Test results taken from paper PMC3070159 (Journal of medicinal chemistry, 2010).

Molecular target: T1, human sEH (Homo sapiens, UniProt P34913)
T1 sequence (P34913 1-555): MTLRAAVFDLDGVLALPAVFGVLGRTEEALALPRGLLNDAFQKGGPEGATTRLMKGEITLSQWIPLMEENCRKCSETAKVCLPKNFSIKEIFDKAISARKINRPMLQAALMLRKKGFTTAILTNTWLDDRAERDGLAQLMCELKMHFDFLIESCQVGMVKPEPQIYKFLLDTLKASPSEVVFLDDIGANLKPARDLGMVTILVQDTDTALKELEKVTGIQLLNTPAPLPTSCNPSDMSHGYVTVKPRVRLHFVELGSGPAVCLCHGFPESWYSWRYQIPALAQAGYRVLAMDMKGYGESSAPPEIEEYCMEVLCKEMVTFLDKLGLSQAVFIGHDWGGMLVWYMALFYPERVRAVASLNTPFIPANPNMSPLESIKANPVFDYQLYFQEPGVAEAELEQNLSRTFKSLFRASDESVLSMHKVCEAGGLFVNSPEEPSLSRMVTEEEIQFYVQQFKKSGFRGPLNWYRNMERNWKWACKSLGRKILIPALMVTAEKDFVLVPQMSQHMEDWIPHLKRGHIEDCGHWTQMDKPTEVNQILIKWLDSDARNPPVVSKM
Assay: fluorescent substrate
Type: biochemical

| fold increase in potency relative to N4-methyl substituted analog 16c (human sEH IC50 ratio) | fold increase in potency relative to N4-unsubstituted analog 24c (human sEH IC50 ratio) | Structure (SMILES) | change fold |
| --- | --- | --- | --- |
| 5.4 fold | 47.2 fold | CC(=O)N1CCN(CCCOc2ccc(NC(=O)NC34CC5CC(CC(C5)C3)C4)cc2)CC1 [Compound 28c, 1-(4-(3-(4-acetylpiperazin-1-yl)propoxy)phenyl)-3-adamantan-1-ylurea] |  |
|  |  | CC(=O)N1CCN(CCCCOc2ccc(NC(=O)NC34CC5CC(CC(C5)C3)C4)cc2)CC1 [Compound 29c, 1-(4-(4-(4-acetylpiperazin-1-yl)butoxy)phenyl)-3-adamantan-1-yl urea] | −2.9 |
|  |  | CC(C)(C)OC(=O)N1CCN(CCCCOc2ccccc2NC(=O)NC23CC4CC(CC(C4)C2)C3)CC1 [Compound 21a] | 191 |
